Reference: US6353003B1, “Method for reducing levels of homocysteine and C-reactive protein” (Eli Lilly and Company, priority 1998, dated 2002)

Tests used:
homocysteine = assay: Clinical investigation: homocysteine levels after six months versus baseline; assay type: in vivo, human; settings: postmenopausal women, six months vs patient's baseline, p<0.05
Procedure: (§1) A clinical investigation was conducted which included 390 women (45-72 years old), who were an average of ten years postmenopausal. These patients were randomly assigned to the following treatment protocol: raloxifene hydrochloride at 60 mg per day via oral administration (cf. Formulation 2, supra), raloxifene at 120 mg per day, or HRT therapy. Homocysteine and C-reactive protein baseline levels were determined, prior to the initiation of therapy. Methods for such determinations are well known and can be found in the references cited, supra. The study was conducted for a period of six months. The levels of homocysteine and C-reactive protein in each patient were compared at the end of six months with that patient's baseline. Results were analyzed by variance. Raloxifene at 60 mg per day lowered levels of homocysteine by 8% (p<0.05) and C-reactive protein by 4% (NS). Raloxifene at 120 mg per day lowered homocysteine by 5.7% (p<0.05) and C-reactive protien by −3.9 (NS).

C-reactive protein = assay: Clinical investigation: C-reactive protein levels after six months versus baseline; assay type: in vivo, human; design: lowered C-reactive protein: unit not given here; settings: postmenopausal women, six months vs patient's baseline, NS
Procedure: as §1

`Cl.O=C(c1ccc(OCCN2CCCCC2)cc1)c1c(-c2ccc(O)cc2)sc2cc(O)ccc12` [Raloxifene, [2-(4-hydroxyphenyl)-6-hydroxybenzo [b]thien-3-yl][4-[2-(1-piperidinyl)ethoxy]phenyl]methanone hydrochloride] was tested, and the “lowered levels of homocysteine” value (homocysteine; 60 mg per day oral) was 8%, the lowered homocysteine (homocysteine; 120 mg per day) was 5.7% and the “lowered levels of C-reactive protein” value (C-reactive protein; 60 mg per day oral) was 4%. The “lowered C-reactive protein” value (C-reactive protein; 120 mg per day) was −3.9.
